Data on 15 compounds can be found in PMC9919951, “Ellagic Acid and Its Metabolites as Potent and Selective Allosteric Inhibitors of Liver Pyruvate Kinase” (Nutrients, 2023).

Data set [1] deals with PKM2 (Homo sapiens, UniProt P14618). Kind of data set: In vitro pyruvate kinase assay, PKM2. The class given is biochemical. The following applies: printed in the PKM2 IC50 column; footnote a: value refers to EC50; read-out: PKM2 EC50 (compound behaves as an activator). The text has this:
(§1) In the absence of the compound, the intensity (Ce) in each data set was defined as 100% activity.

The target in data set [2] is T1, PKR (Homo sapiens, UniProt P30613).
T1 construct: purchased BPS Bioscience
Kind of data set: In vitro pyruvate kinase assay (Kinase-Glo Max luminescence), PKR. The class given is biochemical. The following applies: for PKR IC50: 0.1 mM ADP, 0.125 mM PEP, rt 30 min, Inactive = less than 30% inhibition at 10 µM.
Source text: as §1

Data set [3] has as its target T2, PKL (Homo sapiens, UniProt P30613).
T2 construct: purchased BPS Bioscience
The data set is described as follows: In vitro pyruvate kinase assay (Kinase-Glo Max luminescence), PKL. The class given is biochemical. Particulars: for PKL IC50: 0.1 mM ADP, 0.125 mM PEP, rt 30 min, Inactive = less than 30% inhibition at 10 µM; for Change of PKL inhibitory activity relative to Uro D (5): removal of one hydroxyl group from 5.
Source text: as §1
For orientation: In Kinase-Glo more light means more ATP remaining.

The target in data set [4] is PKM1 (Homo sapiens, UniProt P14618). Kind of data set: In vitro pyruvate kinase assay, PKM1. The format is biochemical.
Source text: as §1

What is called EC50 is the concentration needed to bring the measured effect to its halfway point. A word on the IC50: it is the concentration needed to halve the response being measured. Broadly, the melting point is the temperature, or range, at which the solid turns liquid.

Each structure is given as a SMILES string. Entries after “also recorded” stand apart in the source; their conditions may differ. Some results are limits rather than exact numbers.

T2 sequence (P30613 1-543 isoform P30613-2): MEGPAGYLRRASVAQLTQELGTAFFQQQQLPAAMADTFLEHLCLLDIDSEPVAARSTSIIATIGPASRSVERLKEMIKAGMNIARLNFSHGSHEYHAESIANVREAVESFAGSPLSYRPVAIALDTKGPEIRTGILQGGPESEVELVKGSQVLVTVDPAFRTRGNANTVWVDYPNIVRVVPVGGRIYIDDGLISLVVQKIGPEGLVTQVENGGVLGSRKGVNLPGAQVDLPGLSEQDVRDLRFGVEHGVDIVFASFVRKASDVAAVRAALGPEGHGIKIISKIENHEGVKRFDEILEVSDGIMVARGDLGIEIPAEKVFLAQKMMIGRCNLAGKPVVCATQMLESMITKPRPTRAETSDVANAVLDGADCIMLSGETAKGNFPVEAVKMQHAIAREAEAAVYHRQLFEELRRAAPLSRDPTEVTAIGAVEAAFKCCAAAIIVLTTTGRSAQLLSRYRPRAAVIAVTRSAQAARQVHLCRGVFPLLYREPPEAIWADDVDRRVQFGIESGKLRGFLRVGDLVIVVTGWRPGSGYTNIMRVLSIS
PKM1, sequence (P14618 1-531 isoform P14618-2): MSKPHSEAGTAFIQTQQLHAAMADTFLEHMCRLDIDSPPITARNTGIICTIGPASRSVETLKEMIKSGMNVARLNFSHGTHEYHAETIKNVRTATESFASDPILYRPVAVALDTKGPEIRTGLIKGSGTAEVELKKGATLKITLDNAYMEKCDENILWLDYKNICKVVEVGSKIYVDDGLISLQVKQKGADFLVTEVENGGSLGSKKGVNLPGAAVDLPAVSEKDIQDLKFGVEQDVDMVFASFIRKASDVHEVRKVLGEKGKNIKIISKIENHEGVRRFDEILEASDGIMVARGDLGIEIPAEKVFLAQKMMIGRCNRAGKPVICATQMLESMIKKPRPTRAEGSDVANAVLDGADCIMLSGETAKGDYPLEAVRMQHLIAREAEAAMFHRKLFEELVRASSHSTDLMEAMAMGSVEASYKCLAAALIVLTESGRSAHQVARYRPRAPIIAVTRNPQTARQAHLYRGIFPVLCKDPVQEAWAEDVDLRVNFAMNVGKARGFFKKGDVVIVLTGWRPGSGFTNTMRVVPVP
PKM2, sequence (P14618 whole entry): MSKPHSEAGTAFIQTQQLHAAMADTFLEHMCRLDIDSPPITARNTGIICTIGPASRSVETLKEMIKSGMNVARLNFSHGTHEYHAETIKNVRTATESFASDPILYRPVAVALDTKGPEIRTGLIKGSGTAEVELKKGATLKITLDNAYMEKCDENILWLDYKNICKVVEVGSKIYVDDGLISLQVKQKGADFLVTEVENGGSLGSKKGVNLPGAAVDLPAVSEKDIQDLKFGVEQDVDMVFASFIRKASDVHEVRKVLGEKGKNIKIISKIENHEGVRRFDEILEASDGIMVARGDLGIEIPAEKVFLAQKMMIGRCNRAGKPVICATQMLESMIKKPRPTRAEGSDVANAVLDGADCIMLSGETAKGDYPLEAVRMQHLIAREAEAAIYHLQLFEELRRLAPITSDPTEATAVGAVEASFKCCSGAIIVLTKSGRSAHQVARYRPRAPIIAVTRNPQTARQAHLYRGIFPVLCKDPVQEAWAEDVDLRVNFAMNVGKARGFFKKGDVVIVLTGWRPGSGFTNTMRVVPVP
T1 sequence (P30613 whole entry): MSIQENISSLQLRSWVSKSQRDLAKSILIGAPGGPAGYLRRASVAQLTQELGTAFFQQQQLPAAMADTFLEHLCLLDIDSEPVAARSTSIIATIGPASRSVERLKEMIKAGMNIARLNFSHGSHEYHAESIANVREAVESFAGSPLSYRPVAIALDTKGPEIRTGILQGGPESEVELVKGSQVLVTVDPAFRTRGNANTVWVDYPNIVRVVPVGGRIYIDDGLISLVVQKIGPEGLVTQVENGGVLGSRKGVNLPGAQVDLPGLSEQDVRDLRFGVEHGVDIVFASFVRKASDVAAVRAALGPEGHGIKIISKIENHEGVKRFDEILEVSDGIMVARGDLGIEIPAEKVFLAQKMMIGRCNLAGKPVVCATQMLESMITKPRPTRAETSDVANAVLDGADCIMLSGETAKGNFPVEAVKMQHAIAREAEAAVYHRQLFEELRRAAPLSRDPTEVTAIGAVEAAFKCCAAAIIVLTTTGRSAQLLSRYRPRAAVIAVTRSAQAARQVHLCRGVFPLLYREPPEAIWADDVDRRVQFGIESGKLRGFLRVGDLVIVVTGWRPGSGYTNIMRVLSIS

Consider `O=c1oc2c(O)c(O)cc3c(=O)oc4c(O)c(O)cc1c4c23` [Compound 1, ellagic acid], for which, in data set [1], the 50% effective concentration (EC50) amounted to 70 nM. Also, the figures for the IC50 in data set [2], in data set [3] and in data set [4] were 4700 nM, 32 nM and 81000 nM, respectively. Further, in data set [3] (different concentrations of ADP, activity independent of substrate concentration), the “Mode of PKL inhibition” value is given as “non-competitive allosteric inhibitor”.
Turning to `O=c1cc(-c2ccc(O)c(O)c2)oc2cc(O)cc(O)c12` [Compound 2, luteolin], the IC50 was over 100000 nM in data set [2] and 12000 nM in data set [3].
For `Oc1cc(O)c2cc(O)c(-c3ccc(O)c(O)c3)[o+]c2c1` [Compound 3, cyanidin], the IC50 in data set [2] turned out to be 7400 nM; in data set [3] it was 2100 nM.
Consider `O=c1oc2c(O)c(O)ccc2c2cc(O)c(O)cc12` [Compound 5, urolithin D], for which the EC50 in data set [1] is 30 nM. Also, the IC50 in data set [2] is 1270 nM; in data set [3], 28 nM; in data set [4], 36000 nM.
As for `O=c1occc2cc(O)c(O)cc12` [Compound 6, 6,7-dihydroxy-1H-isochromen-1-one], the melting point lay in the range of 265 to 267 °C. For the same compound, the “PKR IC50” value in data set [2] is listed as “Inactive ^b”. The “PKL IC50” value in data set [3] is listed as “Inactive ^b”.
In the case of `O=c1ccc2ccc(O)c(O)c2o1` [Compound 7], the “PKR IC50” value in data set [2] is “Inactive ^b”. The “PKL IC50” value in data set [3] was “Inactive ^b”.
Compound `Oc1ccc(-c2ccc(O)c(O)c2O)c(O)c1O` [Compound 8, [1,1’-Biphenyl]-2,2’,3,3’,4,4’-hexaol] registered a melting point of over 350 °C. Further, the IC50 in data set [2] is 12000 nM. The compound also gave an IC50 in data set [3] of 3500 nM.
Regarding `Oc1ccc(-c2ccc(O)c(O)c2)cc1O` [Compound 9, [1,1’-biphenyl]-3,3’,4,4’-tetraol], the IC50 in data set [2] was 5100 nM; in data set [3], 2400 nM.
`O=c1oc2cc(O)ccc2c2cc(O)c(O)cc12` [Compound 10, 3,8,9-trihydroxy-6H-benzo[c]chromen-6-one] displayed an IC50 in data set [2] of 2600 nM. Further, in data set [3], the IC50 is 410 nM and the “Change of PKL inhibitory activity relative to Uro D (5)” value was “reduced by approximately one order of magnitude”.
Consider `O=c1oc2cc(O)ccc2c2ccc(O)cc12` [Compound 11, Urolithin A], for which, in data set [2], the “PKR IC50” value was “Inactive ^b”. In data set [3], the “PKL IC50” value is recorded as “no inhibition was observed; also recorded: Inactive ^b”.
Consider `O=c1oc2cc(O)ccc2c2ccccc12` [Compound 12, Urolithin B], for which the “PKR IC50” value in data set [2] is “Inactive ^b”. Moreover, in data set [3], the “PKL IC50” value is on record as “no inhibition was observed; also recorded: Inactive ^b”.
The compound `O=c1oc2c(O)cccc2c2cc(O)c(O)cc12` [Compound 13, 4,8,9-Trihydroxy-6H-benzo[c]chromen-6-one] returned a melting point of 345 to 347 °C. Besides, in data set [2], half-maximal inhibition (IC50) was put at 43000 nM. Also, in data set [3], the IC50 was determined as 3900 nM and the “Change of PKL inhibitory activity relative to Uro D (5)” value was “hundred-fold reduction in activity”.
`O=c1oc2c(O)c(O)ccc2c2cc(O)ccc12` [Compound 14, 3,4,9-Trihydroxy-6H-benzo[c]chromen-6-one]: the IC50 in data set [2] was 68000 nM; in data set [3] it was 2100 nM.
Regarding `O=c1oc2c(O)c(O)ccc2c2ccc(O)cc12` [Compound 15, 3,4,8-Trihydroxy-6H-benzo[c]chromen-6-one], the IC50 in data set [2] is over 100000 nM. Further, in data set [3], half-maximal inhibition (IC50) was put at 1700 nM and the “Change of PKL inhibitory activity relative to Uro D (5)” value is recorded as “dramatically reduced inhibitory activity”.
In the case of `O=C(COP(=O)(O)O)[C@@H](O)[C@H](O)[C@H](O)COP(=O)(O)O` [FBP, Fructose-1,6-biphosphate, reference compound], the EC50 in data set [1] came out at 50 nM; in data set [2] (printed in the PKR IC50 column, footnote a: value refers to EC50, read-out: PKR EC50 (compound behaves as an activator)) it was 10 nM; in data set [3] (printed in the PKL IC50 column, footnote a: value refers to EC50, read-out: PKL EC50 (compound behaves as an activator)) it was 20 nM. Also, the “PKM1 IC50” value in data set [4] is on record as “Inactive”.
